Assay results taken from patent US20120220603A1, “SUBSTITUTED HETEROCYCLIC DERIVATIVES FOR THE TREATMENT OF PAIN AND EPILEPSY” (ZALICUS PHARMACEUTICALS LTD., priority 2009, published 2012).
One block for each molecule: values may come before it.

What was measured:
[1] = molecular target: T1, CaV3.2 T-type Ca2+ channels expressed in HEK cells (Homo sapiens, UniProt O95180); assay: CaV3.2 voltage-clamp electrophysiological assay (fast and slow inactivation); format: cell-based
T1 construct: expressed in transfected cells; host or cells: HEK cells
T1 sequence (O95180 whole entry): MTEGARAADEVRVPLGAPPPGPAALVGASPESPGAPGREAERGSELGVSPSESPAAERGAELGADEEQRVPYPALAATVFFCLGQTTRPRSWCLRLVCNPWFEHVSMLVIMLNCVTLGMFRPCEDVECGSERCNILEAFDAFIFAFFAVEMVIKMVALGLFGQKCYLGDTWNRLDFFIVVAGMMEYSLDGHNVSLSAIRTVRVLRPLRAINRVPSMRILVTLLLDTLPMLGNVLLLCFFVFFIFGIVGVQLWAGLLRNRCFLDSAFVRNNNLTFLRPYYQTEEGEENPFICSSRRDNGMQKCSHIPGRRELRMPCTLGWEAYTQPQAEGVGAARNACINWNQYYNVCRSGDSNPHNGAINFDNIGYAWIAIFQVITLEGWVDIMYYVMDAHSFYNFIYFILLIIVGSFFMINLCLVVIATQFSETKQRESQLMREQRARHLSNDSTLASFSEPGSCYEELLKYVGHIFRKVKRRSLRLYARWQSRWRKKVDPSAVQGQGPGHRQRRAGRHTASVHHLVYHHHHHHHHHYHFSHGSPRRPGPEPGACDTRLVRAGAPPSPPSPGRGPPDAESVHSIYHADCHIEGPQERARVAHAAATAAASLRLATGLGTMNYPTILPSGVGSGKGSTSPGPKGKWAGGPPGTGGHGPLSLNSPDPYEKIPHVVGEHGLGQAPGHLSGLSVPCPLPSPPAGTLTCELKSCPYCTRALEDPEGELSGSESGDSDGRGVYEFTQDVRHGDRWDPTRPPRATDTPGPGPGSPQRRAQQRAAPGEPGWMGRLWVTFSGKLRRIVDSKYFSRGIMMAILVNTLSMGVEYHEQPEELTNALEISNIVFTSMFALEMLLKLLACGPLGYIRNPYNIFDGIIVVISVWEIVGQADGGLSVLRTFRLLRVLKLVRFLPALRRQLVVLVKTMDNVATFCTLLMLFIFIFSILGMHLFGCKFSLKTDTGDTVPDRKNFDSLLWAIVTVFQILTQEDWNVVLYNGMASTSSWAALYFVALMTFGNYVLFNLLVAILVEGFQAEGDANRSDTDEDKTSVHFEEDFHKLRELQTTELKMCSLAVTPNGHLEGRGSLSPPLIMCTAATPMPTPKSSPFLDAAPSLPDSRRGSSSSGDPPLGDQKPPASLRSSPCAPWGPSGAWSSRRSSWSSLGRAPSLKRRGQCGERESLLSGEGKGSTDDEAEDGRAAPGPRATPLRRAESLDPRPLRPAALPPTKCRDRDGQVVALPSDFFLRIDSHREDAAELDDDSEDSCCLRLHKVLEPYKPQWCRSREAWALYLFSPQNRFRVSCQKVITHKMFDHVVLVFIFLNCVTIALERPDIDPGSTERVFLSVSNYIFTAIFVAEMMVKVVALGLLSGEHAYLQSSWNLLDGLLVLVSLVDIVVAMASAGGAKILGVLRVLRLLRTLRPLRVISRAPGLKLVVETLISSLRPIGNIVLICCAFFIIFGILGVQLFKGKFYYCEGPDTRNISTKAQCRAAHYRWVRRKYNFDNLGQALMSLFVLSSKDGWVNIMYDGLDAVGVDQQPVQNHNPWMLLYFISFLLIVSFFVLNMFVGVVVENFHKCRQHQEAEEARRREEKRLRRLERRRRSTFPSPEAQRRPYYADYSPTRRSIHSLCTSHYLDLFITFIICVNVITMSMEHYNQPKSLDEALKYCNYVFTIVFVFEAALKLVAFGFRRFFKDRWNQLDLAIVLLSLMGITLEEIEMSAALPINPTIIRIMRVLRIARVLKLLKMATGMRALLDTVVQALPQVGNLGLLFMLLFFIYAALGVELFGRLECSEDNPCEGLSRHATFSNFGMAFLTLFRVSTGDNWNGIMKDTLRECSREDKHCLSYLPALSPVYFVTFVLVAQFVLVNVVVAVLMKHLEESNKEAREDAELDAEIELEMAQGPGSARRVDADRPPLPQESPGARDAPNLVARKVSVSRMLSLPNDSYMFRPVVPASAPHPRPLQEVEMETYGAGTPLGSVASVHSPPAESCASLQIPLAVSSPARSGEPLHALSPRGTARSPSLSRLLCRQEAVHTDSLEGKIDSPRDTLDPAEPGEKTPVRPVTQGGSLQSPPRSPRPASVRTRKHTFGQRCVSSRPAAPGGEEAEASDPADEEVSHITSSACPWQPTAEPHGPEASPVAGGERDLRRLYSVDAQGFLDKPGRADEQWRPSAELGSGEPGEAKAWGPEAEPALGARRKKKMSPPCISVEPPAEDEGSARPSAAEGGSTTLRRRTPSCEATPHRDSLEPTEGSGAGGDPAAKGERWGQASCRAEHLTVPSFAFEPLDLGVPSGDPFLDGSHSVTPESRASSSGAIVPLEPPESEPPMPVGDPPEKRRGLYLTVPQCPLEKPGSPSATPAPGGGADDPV
Description: Prior to recording currents from CaV3.2 T-type Ca^2+ channels expressed in HEK cells, the culture media was replaced with extracellular solution (ECS) containing (in mM): 142 CsCl, 10 D-glucose, 2 CaCl2, 1 MgCl2, 10 HEPES, pH adjusted to 7.4 with CsOH. Borosilicate glass patch pipettes, pulled on a P-97 micropipette puller (Sutter Instruments, Novato, Calif.) with typical resistances of 2-4 MW, were backfilled with intracellular solution containing (in mM): 126.5 Cs-methanesulphonate, 2 MgCl2, 10 HEPES, 11 EGTA, 2 Na-ATP, pH adjusted to 7.3 CsOH. […] were recorded in the whole-cell configuration at room temperature (˜21° C.) using an Axopatch 200B (Molecular Devices, Sunnyvale, Calif.) patch-clamp amplifier. Recordings were low-pass filtered at 1 kHz (−3 dB 4-pole Bessel filter), digitized at 2 kHz with a Digidata 1322A interface (Molecular Devices), and acquired using pClamp 9.2 (Molecular Devices). No leak subtraction was used. Test compounds, prepared as 30 mM stock solutions in DMSO and diluted in extracellular buffer, were applied through a gravity driven multi-barrelled array of capillaries (24 gauge) connected to reservoirs controlled by solenoid valves. The effects of compounds on CaV3.2 slow and fast inactivation were evaluated using four different voltage protocols. The voltage dependence of fast and slow channel inactivation was examined using a two pulse protocol. Data were analyzed and fitted using OriginPro v.7.5 (OriginLab, Northampton, Mass.) software.

[2] = tested on: Rat SNL tactile allodynia; assay: L5/L6 spinal nerve ligation (SNL) Chung pain model, tactile allodynia (von Frey); format: in vivo
Description: The Spinal Nerve Ligation is an animal model representing peripheral nerve injury generating a neuropathic pain syndrome. In this model experimental animals develop the clinical symptoms of tactile allodynia and hyperalgesia. L5/L6 Spinal nerve ligation (SNL) injury was induced using the procedure of Kim and Chung (Kim et al., Pain 50:355-363 (1992)) in male Sprague-Dawley rats (Harlan; Indianapolis, Ind.) weighing 200 to 250 grams.
Anaesthesia was induced with 2% isofluorane in O2 at 2 L/min and maintained with 0.5% isofluorane in O2. Rats were then shaved and aseptically prepared for surgeries. A 2 cm paraspinal incision was made at the level of L4-S2. L4/L5 was exposed by removing the transverse process above the nerves with a small rongeur. The L5 spinal nerve is the larger of the two visible nerves below the transverse process and lies closest to the spine. The L6 spinal nerve is located beneath the corner of the slope bone. A home-made glass Chung rod was used to hook L5 or L6 and a pre-made slip knot of 4.0 silk suture was placed on the tip of the rod just above the nerve and pulled underneath to allow for the tight ligation. The L5 and L6 spinal nerves were tightly ligated distal to the dorsal root ganglion. The incision was closed, and the animals were allowed to recover for 5 days.
Sham control rats underwent the same operation and handling as the experimental animals, but without SNL.
Prior to initiating drug delivery, baseline behavioural testing data is obtained. At selected times after infusion of the Test or Control Article behavioural data can then be collected again.
The assessment of tactile allodynia consisted of measuring the withdrawal threshold of the paw ipsilateral to the site of nerve injury in response to probing with a series of calibrated von Frey filaments (innocuous stimuli). Animals were acclimated to the suspended wire-mesh cages for 30 min before testing. Each von Frey filament was applied perpendicularly to the plantar surface of the ligated paw of rats for 5 sec. A positive response was indicated by a sharp withdrawal of the paw. For rats, the first testing filament is 4.31. Measurements were taken before and after administration of test articles. […] The protocol was repeated until three changes in behaviour were determined (“up and down” method) (Chaplan et al., J. Neurosci. Methods 53:55-63 (1994)). The 50% paw withdrawal threshold was determined as (10^[Xf+kδ])/10,000, where Xf=the value of the last von Frey filament employed, k=Dixon value for the positive/negative pattern, and S=the logarithmic difference between stimuli. The cut-off values for rats were no less than 0.2 g and no higher than 15 g (5.18 filament); for mice no less than 0.03 g and no higher than 2.34 g (4.56 filament). A significant drop of the paw withdrawal threshold compared to the pre-treatment baseline is considered tactile allodynia. […]

[3] = molecular target: T2, NaV1.7 channels expressed in HEK cells (Homo sapiens, UniProt Q15858); assay: NaV1.7 voltage-clamp electrophysiological assay (enhancement of slow inactivation); format: cell-based
T2 construct: expressed in transfected cells; host or cells: HEK cells
T2 sequence (Q15858 whole entry): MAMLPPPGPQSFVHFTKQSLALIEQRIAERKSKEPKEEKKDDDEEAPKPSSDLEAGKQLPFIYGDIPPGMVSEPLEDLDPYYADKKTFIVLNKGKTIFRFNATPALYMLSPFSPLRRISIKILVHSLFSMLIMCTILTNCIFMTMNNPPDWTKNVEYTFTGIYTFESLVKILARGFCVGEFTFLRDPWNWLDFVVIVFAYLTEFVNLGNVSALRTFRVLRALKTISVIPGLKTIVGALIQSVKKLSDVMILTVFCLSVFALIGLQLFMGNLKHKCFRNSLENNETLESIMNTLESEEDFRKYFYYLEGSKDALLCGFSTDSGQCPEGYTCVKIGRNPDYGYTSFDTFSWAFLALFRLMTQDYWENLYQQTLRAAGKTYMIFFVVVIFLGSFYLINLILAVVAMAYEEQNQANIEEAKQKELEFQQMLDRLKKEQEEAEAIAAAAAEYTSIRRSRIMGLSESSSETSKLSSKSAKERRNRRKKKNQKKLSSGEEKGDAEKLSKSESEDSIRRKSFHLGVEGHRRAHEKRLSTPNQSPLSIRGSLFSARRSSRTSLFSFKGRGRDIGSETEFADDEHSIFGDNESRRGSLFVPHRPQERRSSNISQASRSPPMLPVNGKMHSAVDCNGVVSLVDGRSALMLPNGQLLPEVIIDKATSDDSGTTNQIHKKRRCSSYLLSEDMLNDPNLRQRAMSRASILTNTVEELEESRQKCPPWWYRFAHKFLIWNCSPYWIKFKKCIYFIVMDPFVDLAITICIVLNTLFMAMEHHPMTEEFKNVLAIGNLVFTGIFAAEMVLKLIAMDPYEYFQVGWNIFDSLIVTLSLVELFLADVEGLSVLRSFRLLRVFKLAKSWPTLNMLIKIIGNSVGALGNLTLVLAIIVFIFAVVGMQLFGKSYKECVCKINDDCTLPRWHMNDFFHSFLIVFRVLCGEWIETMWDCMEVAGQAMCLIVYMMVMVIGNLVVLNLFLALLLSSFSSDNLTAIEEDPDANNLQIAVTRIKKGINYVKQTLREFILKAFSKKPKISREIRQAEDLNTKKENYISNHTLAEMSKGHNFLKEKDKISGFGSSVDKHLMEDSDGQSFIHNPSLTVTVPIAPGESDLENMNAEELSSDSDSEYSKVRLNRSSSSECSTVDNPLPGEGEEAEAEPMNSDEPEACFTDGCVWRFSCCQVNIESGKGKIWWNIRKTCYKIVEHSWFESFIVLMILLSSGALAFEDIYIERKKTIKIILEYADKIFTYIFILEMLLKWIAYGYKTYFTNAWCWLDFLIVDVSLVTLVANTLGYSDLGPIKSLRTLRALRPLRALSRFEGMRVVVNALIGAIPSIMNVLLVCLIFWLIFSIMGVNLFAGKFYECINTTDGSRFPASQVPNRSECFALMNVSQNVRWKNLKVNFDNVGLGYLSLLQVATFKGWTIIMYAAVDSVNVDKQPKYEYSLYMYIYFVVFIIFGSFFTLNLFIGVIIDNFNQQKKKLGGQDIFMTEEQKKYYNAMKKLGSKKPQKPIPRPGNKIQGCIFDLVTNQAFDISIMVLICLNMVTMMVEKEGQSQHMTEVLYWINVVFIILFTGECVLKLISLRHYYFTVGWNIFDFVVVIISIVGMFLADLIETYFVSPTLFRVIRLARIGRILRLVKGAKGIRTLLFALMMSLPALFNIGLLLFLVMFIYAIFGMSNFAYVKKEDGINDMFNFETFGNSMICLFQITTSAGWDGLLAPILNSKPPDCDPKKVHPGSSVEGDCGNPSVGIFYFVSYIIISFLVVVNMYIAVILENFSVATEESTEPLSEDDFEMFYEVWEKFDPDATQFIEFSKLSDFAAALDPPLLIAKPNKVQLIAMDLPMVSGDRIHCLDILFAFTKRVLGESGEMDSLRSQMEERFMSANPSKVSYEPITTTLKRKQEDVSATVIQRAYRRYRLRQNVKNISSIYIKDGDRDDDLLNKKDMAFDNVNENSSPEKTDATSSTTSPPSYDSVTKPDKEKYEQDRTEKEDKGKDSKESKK
Method: To examine the effects of compounds on enhancement of slow inactivation of NaV1.7 and NaV1.8 channels expressed in HEK cells the culture media was replaced with an extracellular solution containing (in mM): 137 NaCl, 4 KCl, 1.8 CaCl2, 1 MgCl2, 10 HEPES, 10 glucose, pH adjusted to 7.4 with NaOH. The intracellular solution contained (in mM): 130 KCl, 1 MgCl2, 5 EGTA, 10 HEPES, 5 K2ATP, adjusted to pH 7.3 with KOH. Whole-cell recordings, preparation and application of test compounds were performed in a similar manner to the CaV3.2 electrophysiological assays. Voltage protocols were applied to quantify the effects of test compounds to enhance slow inactivation for NaV1.7 and NaV1.8.

[4] = Rat Early Pharmacokinetic (EPK) study; format: in vivo; settings: PO, 30 mg/kg, formulation 10% DMSO/90% CMC; for Tmax: male, Sprague-Dawley, blood
Method: Male Sprague-Dawley rats were dosed via oral (PO) gavage in the detailed formulation. Blood samples were collected from the animals at 6 timepoints out to 4 hours post-dose. Pharmacokinetic analysis was performed on the LC-MS/MS measured concentrations for each timepoint of each compound.

[5] = tested on: seizures induced by 6 Hz corneal stimulation in CF1 mice; assay: 6 Hz psychomotor seizure model of partial epilepsy; format: in vivo, mouse; set-up: Epilepsy 6 Hz (% protected): concentration or dose not given beside the values; settings: 32 mA
Method: Compounds were evaluated for the protection against seizures induced by a 6 Hz, 0.2 ms rectangular pulse width of 3 s duration, at a stimulus intensity of 32 mA (CC97) applied to the cornea of male CF1 mice (20-30 g) according to procedures described by Barton et al, “Pharmacological Characterization of the 6 Hz Psychomotor Seizure Model of Partial Epilepsy,” Epilepsy Res. 47(3):217-27 (2001). Seizures are characterised by the expression of one or more of the following behaviours: stun, forelimb clonus, twitching of the vibrissae and Straub-tail immediately following electrical stimulation.

mice on rotarod = assay: Mouse rotarod assay (minimal muscular or neurological impairment); format: in vivo
Method: To assess a compound's undesirable side effects (toxicity), animals were monitored for overt signs of impaired neurological or muscular function. In mice, the rotarod procedure (Dunham and Miya, J. Am. Pharmacol. Assoc. 46:208-209 (1957)) is used to disclose minimal muscular or neurological impairment (MMI). When a mouse is placed on a rod that rotates at a speed of 6 rpm, the animal can maintain its equilibrium for long periods of time. The animal is considered toxic if it falls off this rotating rod three times during a 1-min period.

[6] = tested on: Lamina I/II spinal cord neurons; assay: Lamina assay: current-clamp recordings on lamina I/II spinal cord neurons; format: cell-based, rat; settings: Lamina I and II, tonic firing neurons, current-clamp
Description: Male Wistar rats (P6 to P9 for voltage-clamp and P15 to P18 for current-clamp recordings) were anaesthetized through intraperitoneal injection of Inactin (Sigma). The spinal cord was then rapidly dissected out and placed in an ice-cold solution protective sucrose solution containing (in mM): 50 sucrose, 92 NaCl, 15 D-Glucose, 26 NaHCO3, 5 KCl, 1.25 NaH2PO4, 0.5 CaCl2, 7 MgSO4, 1 kynurenic acid, and bubbled with 5% CO2/95% O2. The meninges, dura, and dorsal and ventral roots were then removed from the lumbar region of the spinal cord under a dissecting microscope. The “cleaned” lumbar region of the spinal cord was glued to the vibratome stage and immediately immersed in ice cold, bubbled, sucrose solution. For current-clamp recordings, 300 to 350 μm parasagittal slices were cut to preserve the dendritic arbour of lamina I neurons, while 350 to 400 μm transverse slices were prepared for voltage-clamped […] channel recordings. Slices were allowed to recover for 1 hour at 35° C. in Ringer solution containing (in mM): 125 NaCl, 20 D-Glucose, 26 NaHCO3, 3 KCl, 1.25 NaH2PO4, 2 CaCl2, 1 MgCl2, 1 kynurenic acid, 0.1 picrotoxin, bubbled with 5% CO2/95% O2. The slice recovery chamber was then returned to room temperature (20 to 22° C.) and all recordings were performed at this temperature.
Neurons were visualized using IR-DIC optics (Zeiss Axioskop 2 FS plus, Gottingen, Germany), and neurons from lamina I and the outer layer of lamina II were selected based on their location relative to the substantia gelatinosa layer. Neurons were patch-clamped using borosilicate glass patch pipettes with resistances of 3 to 6 MΩ. Current-clamp recordings of lamina I/II neurons in the intact slice, the external recording solution was the above Ringer solution, while the internal patch pipette solution contained (in mM): 140 KGluconate, 4 NaCl, 10 HEPES, 1 EGTA, 0.5 MgCl2, 4 MgATP, 0.5 Na2GTP, adjusted to pH 7.2 with 5 M KOH and to 290 mOsm with D-Mannitol (if necessary). Only tonic firing neurons were selected for current-clamp experiments, while phasic, delayed onset and single spike neurons were discarded (22). Recordings were digitized at 50 kHz and low-pass filtered at 2.4 kHz.

[7] = voltage-dependence of half inactivation, HEK cells, whole-cell

SMILES: O=C(CN1CCNCC1=O)Nc1cc(F)c(F)cc1F [Compound 2, 2-(2-oxopiperazin-1-yl)-N-(2,4,5-trifluorophenyl)acetamide]
Fraction of current recovered at 5.1 s interval ([1]; 5.1 s interval): 0.98 | Fraction current remaining at −40 mV ([1]; at −40 mV): 0.58 | V1/2 fast inactivation [1, 7]: −65 mV | V1/2 slow inactivation [1, 7]: −80 mV

SMILES: O=C1CNCCN1C(=O)CNc1cc(F)cc(F)c1 [Compound 3, 1-(2-(3,5-difluorophenylamino)acetyl)piperazin-2-one]
Rat SNL Tactile Allodynia (% Antiallodynia) ([2]; 1 hour): 1% | Rat SNL Tactile Allodynia (% Antiallodynia) ([2]; 4 hours): 4%

SMILES: O=C1CN(C(=O)CNc2cc(C(F)(F)F)cc(C(F)(F)F)c2)CCN1 [Compound 10, 4-(2-(3,5-bis(trifluoromethyl)phenylamino)acetyl)piperazin-2-one]
Fraction current remaining ([3]; concentration tested 10 μM): 0.91 | Fraction current remaining ([3]; concentration tested 100 μM): 0.74 | Rat SNL Tactile Allodynia (% Antiallodynia) ([2]; 1 hour): 10% | Rat SNL Tactile Allodynia (% Antiallodynia) ([2]; 2 hours): 13% | Rat SNL Tactile Allodynia (% Antiallodynia) ([2]; 4 hours): 15% | Dose Normalized AUC [4]: 1,192 nM*h | Dose Normalized Cmax [4]: 355 nM | Tmax [4]: 72 min

SMILES: O=C1CN(C(=O)CNc2cc(F)cc(C(F)(F)F)c2)CCN1 [Compound 11, 4-(2-(3-fluoro-5-(trifluoromethyl)phenylamino)acetyl)piperazin-2-one]
Rat SNL Tactile Allodynia (% Antiallodynia) ([2]; 1 hour): 9% | Rat SNL Tactile Allodynia (% Antiallodynia) ([2]; 2 hours): 4% | Rat SNL Tactile Allodynia (% Antiallodynia) ([2]; 4 hours): 1%

SMILES: CC1(C)C(=O)NCCN1C(=O)CNc1cc(C(F)(F)F)cc(C(F)(F)F)c1 [Compound 12, 4-(2-(3,5-bis(trifluoromethyl)phenylamino)acetyl)-3,3-dimethylpiperazin-2-one]
Rat SNL Tactile Allodynia (% Antiallodynia) ([2]; 1 hour): 9% | Rat SNL Tactile Allodynia (% Antiallodynia) ([2]; 2 hours): 11% | Rat SNL Tactile Allodynia (% Antiallodynia) ([2]; 4 hours): 42%

SMILES: O=C(CC1CCNCC1)Nc1cc(C(F)(F)F)cc(C(F)(F)F)c1 [Compound 19, N-(3,5-bis(trifluoromethyl)phenyl)-2-(piperidin-4-yl)acetamide]
Rat SNL Tactile Allodynia (% Antiallodynia) ([2]; 1 hour): 47% | Rat SNL Tactile Allodynia (% Antiallodynia) ([2]; 2 hours): 39% | Rat SNL Tactile Allodynia (% Antiallodynia) ([2]; 4 hours): 32% | Epilepsy 6 Hz (% protected) ([5]; 0.25 hr): 100% | Epilepsy 6 Hz (% protected) ([5]; 0.5 hr): 100% | Epilepsy 6 Hz (% protected) ([5]; 1 hr): 100% | Epilepsy 6 Hz (% protected) ([5]; 2 hr): 100% | Epilepsy 6 Hz (% protected) ([5]; 4 hr): 0% | % Impaired (mice on rotarod; 0.25 hr): 0% | % Impaired (mice on rotarod; 0.5 hr): 75% | % Impaired (mice on rotarod; 1 hr): 100% | % Impaired (mice on rotarod; 2 hr): 100% | % Impaired (mice on rotarod; 4 hr): 100% | % Spike Change (Mean; % change from control) [6]: −30.3%

Second part, led by results:

Dose Normalized AUC [4]: 458 nM·h | Dose Normalized Cmax [4]: 172 nM | Tmax [4]: 40.2 min
SMILES: CC1(C)CN(CC(=O)Nc2cc(C(F)(F)F)cc(C(F)(F)F)c2)C(=O)CN1 [Compound 13, N-(3,5-bis(trifluoromethyl)phenyl)-2-(5,5-dimethyl-2-oxopiperazin-1-yl)acetamide]
Rat SNL Tactile Allodynia (% Antiallodynia) ([2]; 1 hour): 16% | Rat SNL Tactile Allodynia (% Antiallodynia) ([2]; 2 hours): 8% | Rat SNL Tactile Allodynia (% Antiallodynia) ([2]; 4 hours): 5% | Anti-allodynia in rat SNL tactile allodynia (in words) ([2]; at 60 minutes compared to baseline and post-SNL): significant anti-allodynia

Fraction current remaining ([3]; concentration tested 30 μM): 0.87
SMILES: O=C(CN1CCNCC1=O)NCc1cc(C(F)(F)F)cc(C(F)(F)F)c1 [Compound 20, N-(3,5-bis(trifluoromethyl)benzyl)-2-(2-oxopiperazin-1-yl)acetamide]

Fraction current remaining ([3]; concentration tested 30 μM): 0.91
SMILES: O=C(NCCN1CCNCC1=O)c1cc(F)cc(C(F)(F)F)c1 [Compound 23, 3-fluoro-N-(2-(2-oxopiperazin-1-yl)ethyl)-5-(trifluoromethyl)benzamide]
